From patent US20070219190A1, “Heterocyclic NF-kB Inhibitors” (4SC AG, priority 2006, published 2007) come the findings set out here.

The test system of this test is A549-NF-κB-SEAP reporter cells. The test is described as follows: NF-κB inflammation assay (PRINCESS NINA Instant Assay, SEAP reporter). The note with it: stimulation with 2 ng/ml TNF-α; test concentration for the class not stated. The class given is cell-based. The source says:
Inhibition of NF-κB-Induced Inflammation:
For the determination of anti-inflammatory activity of the compounds the PRINCESS® NINA Instant Assay from Cell Culture Service GmbH was used. This assay is based on recombinant A549-NF-κB-SEAP reporter cells preseeded in 96-well flat bottom plates. As the transfected reporter gene for SEAP (secreted embryonic alkaline phosphatase) is under transcriptional control of a NF-κB-responsive element, the expression of this reporter is activated upon stimulation with TNF-α. SEAP secretion into the culture supernatant can be detected by the chemiluminescent substrate CSPD®. Test compounds that inhibit the NF-κB activation show reduced SEAP activity and reduced luminescent readout.
Following 18 h of reactivation at 37° C., 5% CO2 and 90% relative humidity, the cells were incubated with 0.01 up to 100 μM of test compound for 4.5 h before stimulation with 2 ng/ml TNF-α. After stimulation with TNF-α for 22 h endogenous phosphatases were inactivated and CSPD® substrate was supplied for 40 min. SEAP activity then was quantified by measuring luminescence as relative light units (RLU) using a Tecan Ultra reader. Each data point was recorded in quadruplicates and EC50 values were calculated via fitting function and the Microsoft Excel Solver.

Structures are written as SMILES.

As for `N#Cc1ccc(CN2CCC(c3nc(C(=O)N4CCC(n5nnc6cc(C(F)(F)F)ccc65)CC4)cs3)CC2)cc1` [Cp. 1, 4-(4-{4-[4-(5-Trifluoromethyl-benzotriazol-1-yl)-piperidine-1-carbonyl]-thiazol-2-yl}-piperidin-1-yl-methyl)-benzonitrile], the “Biological activity (NF-κB inflammation assay, inhibition)” value is “++ (“++” means 80-90%)”.
On to `COc1nc(OC)nc(N2CCC(c3nc(C(=O)N4CCN(c5nsc6ccccc56)CC4)cs3)CC2)n1` [Cp. 5, (4-Benzo[d]isothiazol-3-yl-piperazin-1-yl)-{2-[1-(4,6-dimethoxy-[1,3,5]triazin-2-yl)-piperidin-4-yl]-thiazol-4-yl}-methanone], for which the “Biological activity (NF-κB inflammation assay, inhibition)” value is on record as “++ (“++” means 80-90%)”.
For `N#Cc1ccc(CN2CCC(c3nc(C(=O)N4CCN(c5nsc6ccccc56)CC4)cs3)CC2)cc1` [Cp. 2, 4-{4-[4-(4-Benzo[d]isothiazol-3-yl-piperazine-1-carbonyl)-thiazol-2-yl]-piperidin-1-ylmethyl}-benzonitrile], the “Biological activity (NF-κB inflammation assay, inhibition)” value is listed as “++ (“++” means 80-90%)”.
In the case of `N#Cc1ccc(CN2CCC(c3nc(C(=O)N4CCC(n5cnc6ccccc65)CC4)cs3)CC2)cc1` [Cp. 3, 4-{4-[4-(4-Benzoimidazol-1-yl-piperidine-1-carbonyl)-thiazol-2-yl]-piperidin-1-ylmethyl}-benzonitrile], the “Biological activity (NF-κB inflammation assay, inhibition)” value is “++ (“++” means 80-90%)”.
With `COc1cc(N2CCC(c3nc(C(=O)N4CCN(c5nsc6ccccc56)CC4)cs3)CC2)nc(OC)n1` [Cp. 7, (4-Benzo[d]isothiazol-3-yl-piperazin-1-yl)-{2-[1-(2,6-dimethoxy-pyrimidin-4-yl)-piperidin-4-yl]-thiazol-4-yl}-methanone], the “Biological activity (NF-κB inflammation assay, inhibition)” value is “++ (“++” means 80-90%)”.
To `COc1nc(OC)nc(N2CCC(c3nc(C(=O)N4CCC(n5cnc6ccccc65)CC4)cs3)CC2)n1` [Cp. 6, (4-Benzoimidazol-1-yl-piperidin-1-yl)-{2-[1-(4,6-dimethoxy-[1,3,5]triazin-2-yl)-piperidin-4-yl]-thiazol-4-yl}-methanone] belongs “++ (“++” means 80-90%)”; to `O=C(c1csc(C2CCN(c3ncnc4ccsc34)CC2)n1)N1CCN(c2nsc3ccccc23)CC1` [Cp. 8, (4-Benzo[d]isothiazol-3-yl-piperazin-1-yl)-[2-(1-thieno[3,2-d]pyrimidin-4-yl-piperidin-4-yl)-thiazol-4-yl]-methanone], “+++ (“+++” stands for 90-100% inhibition)”.
